Results published in a melting point compilation (Tetko et al.; mined from patent text by program, amines drawn as free bases though some values may be those of a salt).

Compound | melting point [°C]
CN1C(=O)C(C)(C)N=C(c2ccccc2Cl)c2cc([N+](=O)[O-])ccc21 | 177 to 178
N#CCOC(=O)c1cccnc1SCC#N | 140 to 143
COCc1nccc(=O)[nH]1 | 125 to 127
COc1cc(Nc2c(C#N)cnc3cc(-c4ccc(C(=O)O)cc4)sc23)c(Cl)cc1Cl | > 300
O=c1[nH]c2ncc(-c3ccc4[nH]cnc4c3)nc2n1CCC1CCOCC1 | 264 to 265
CC(C)(C)OC(=O)CNC(=O)CC(C1CCCCC1)C1CCCCC1 | 72 to 74
CCOc1cc(OCCCc2cn(-c3ccc(C(F)(F)F)cn3)nc2-c2ccccc2)ccc1CCC(=O)O | 135 to 136
CCNC(=O)N1CCN(c2ccccc2C(C)(C)C)CC1 | 196 to 198
Cc1cccc(CC(=O)c2ccnc(-c3ccc(C=O)cc3)c2)n1 | 118
COc1ccc(/C=C/C(=O)N2CCN(C(=O)c3cc(C(F)(F)F)cc(C(F)(F)F)c3)[C@H](Cc3ccc(C)c(C)c3)C2)cc1 | 67 to 76
Nc1ccc(C(O)(Cc2ccccc2)c2ccccc2)cc1 (centres undefined) | 105 to 107
Oc1nnc2ccc3ccccc3n12 | 134
CCOC(=O)/C(=C\Nc1cccc(OC)c1)c1ccccc1 | 49 to 50
CCOC(=O)C1=Cc2cc(C)cc(Br)c2NC1C(F)(F)F (centres undefined) | 122 to 124
CCOC(=O)CCCCc1cn(-c2cccnc2)c2ccccc12 | 56 to 58
CCCCNC(=O)Cc1ccc2c(c1)c(Cc1ccc(C(=O)NS(=O)(=O)c3ccccc3C)cc1OC)cn2C | 108 to 110
Cc1c(-c2ccncc2)c(-c2ccc(F)cc2)n2c1SCC2 | 208
O[C@H](COc1cccc2[nH]ccc12)CN1CC=C(c2c[nH]c3cc(F)ccc23)CC1 | 95 to 100
N#Cc1ccc(-c2cc(F)c(F)c(OC3SCC(O)C(O)C3O)c2)cn1 (centres undefined) | 173
O=C1NC(=O)C(Cc2ccc(OCc3nc4cccnc4n3Cc3ccc(Cl)cc3)cc2)S1 (centres undefined) | 211 to 213

Compound | melting point [°C]
CC(=O)NC[C@H]1CC[C@H](C(=O)c2cc3c4c(c2)CCN4C(=O)CC3)CC1 | 178 to 180
c1ccc2c3cncc-3cncc2c1 | 220 to 221
CCOC(=O)C(=O)Nc1ccc(C=Cc2ccc3ccccc3n2)cc1 | 160 to 162
CCc1ccc(SC(=NNc2ccc(OC)cc2)C(C)=O)cc1 | 106 to 108
COc1ccc(C(=O)C2Cc3ccc(O)c(O)c3C2=O)cc1 (centres undefined) | 191 to 193
CCOC(=O)Cc1ccc2c(c1)C(O)c1ccccc1O2 (centres undefined) | 214 to 219
CN(C)C(=O)c1nc(-c2ccccc2)nc2c1c1cc(Cl)ccc1n2C | 222 to 224
COc1ccccc1N1CCN(CCn2cnc3c(c2=O)CN(Cc2ccccc2)CC3)CC1 | 200
Cc1csc(N2N=C(c3ccc([N+](=O)[O-])cc3)c3cc4c(cc3CC2C)OCO4)n1 (centres undefined) | 188 to 189
COC(=O)C(O)C(NC(=O)OC(C)(C)C)C1CC1 (centres undefined) | 93
CCOC(=O)C(C#N)=Cc1c(Cl)n(Cc2ccc(Cl)cc2)c2ccccc12 | 179 to 180
COc1nc2ccccc2nc1NC(=O)N1CCN(c2ccc(C(C)=O)cc2)CC1 | 198 to 200
CC(C)(C)OC(=O)N1C[C@@H](P(C2CCCCC2)C2CCCCC2)C[C@H]1CP(c1ccccc1)c1ccccc1 | 171 to 174
CCCCCCCCCCCCCCC(COC(C)=O)(COC(C)=O)NC(C)=O | 84 to 85.5
O=C(O)CCCc1cc2nc(Cl)ccc2n1S(=O)(=O)c1ccc2c(c1)CCO2 | 225
Cc1c(NC(=O)CC(C)(C)C)cc2c(c1C)OC(C)(C)C2Cc1ccc(C(C)C)cc1 (centres undefined) | 130 to 132
CC(C)(C)OC(=O)C1CC(c2ccc(N)cc2)CCN1 (centres undefined) | 114 to 116
COc1cc2c(cc1OC)CCN(CCCN(C)C1CCc3cc(OC)c(OC)cc3C1)CC2 (centres undefined) | 92 to 93
O=C(O)COc1ccc(-c2ccc(=O)[nH]n2)cc1Cl | 227
